Laboratory results as given in patent publication US20240142437A1, “METHODS TO PREVENT TERATOGENICITY OF IMID LIKE MOLECULES AND IMID BASED DEGRADERS/PROTACS” (DANA-FARBER CANCER INSTITUTE, INC., priority 2017, published 2024).
One block for each compound: values may come before it.

Key:
[1] = biological target: T1, SALL4 (Homo sapiens, UniProt Q96SW2+Q9UJQ4); assay: Western blot of SALL4 protein levels in human cell lines; type: cell-based; conditions: for effect of co-treatment on IMiD-induced SALL4 degradation: co-treatment with thalidomide, 5 μM bortezomib, 5 μM MLN4924, 0.5 μM MLN7243, HEK293T, SK-N-DZ cells; for SALL4 degradation in CRBN−/− cells: CRBN−/− Kelly and HEK293T cells; for SALL4 protein levels by western blot: 24 hours
T1 construct: endogenous in cells; host or cells: Kelly, SK-N-DZ, HEK293T (western blot)
T1 sequence (Q9UJQ4 whole entry): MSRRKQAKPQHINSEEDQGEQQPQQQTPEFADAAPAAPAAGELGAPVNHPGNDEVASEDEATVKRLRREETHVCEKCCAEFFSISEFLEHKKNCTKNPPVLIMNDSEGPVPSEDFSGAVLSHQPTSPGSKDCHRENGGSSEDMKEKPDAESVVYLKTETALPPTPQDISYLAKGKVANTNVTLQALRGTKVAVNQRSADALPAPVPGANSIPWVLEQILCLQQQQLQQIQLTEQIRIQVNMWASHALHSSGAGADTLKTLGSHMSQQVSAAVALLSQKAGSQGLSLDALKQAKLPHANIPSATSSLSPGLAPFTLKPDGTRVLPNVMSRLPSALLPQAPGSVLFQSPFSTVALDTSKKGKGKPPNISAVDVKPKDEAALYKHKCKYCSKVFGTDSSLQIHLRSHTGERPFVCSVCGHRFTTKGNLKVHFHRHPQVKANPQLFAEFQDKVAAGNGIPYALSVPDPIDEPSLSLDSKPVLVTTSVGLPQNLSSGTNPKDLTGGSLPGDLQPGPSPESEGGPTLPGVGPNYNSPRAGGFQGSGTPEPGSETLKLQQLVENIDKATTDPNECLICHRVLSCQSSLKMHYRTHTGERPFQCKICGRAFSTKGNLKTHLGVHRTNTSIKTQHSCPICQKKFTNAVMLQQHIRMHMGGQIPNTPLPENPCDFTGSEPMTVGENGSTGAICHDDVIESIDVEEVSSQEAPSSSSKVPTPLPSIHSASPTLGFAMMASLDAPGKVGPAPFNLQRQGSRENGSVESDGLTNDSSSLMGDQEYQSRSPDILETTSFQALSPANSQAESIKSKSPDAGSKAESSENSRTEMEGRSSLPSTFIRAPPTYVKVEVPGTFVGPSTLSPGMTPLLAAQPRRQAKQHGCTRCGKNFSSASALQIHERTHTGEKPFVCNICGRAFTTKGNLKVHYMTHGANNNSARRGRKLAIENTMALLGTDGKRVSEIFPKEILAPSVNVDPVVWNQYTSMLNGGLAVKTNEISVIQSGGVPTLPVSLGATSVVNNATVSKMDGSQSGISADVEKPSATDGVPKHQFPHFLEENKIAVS
T1 sequence (Q96SW2 whole entry): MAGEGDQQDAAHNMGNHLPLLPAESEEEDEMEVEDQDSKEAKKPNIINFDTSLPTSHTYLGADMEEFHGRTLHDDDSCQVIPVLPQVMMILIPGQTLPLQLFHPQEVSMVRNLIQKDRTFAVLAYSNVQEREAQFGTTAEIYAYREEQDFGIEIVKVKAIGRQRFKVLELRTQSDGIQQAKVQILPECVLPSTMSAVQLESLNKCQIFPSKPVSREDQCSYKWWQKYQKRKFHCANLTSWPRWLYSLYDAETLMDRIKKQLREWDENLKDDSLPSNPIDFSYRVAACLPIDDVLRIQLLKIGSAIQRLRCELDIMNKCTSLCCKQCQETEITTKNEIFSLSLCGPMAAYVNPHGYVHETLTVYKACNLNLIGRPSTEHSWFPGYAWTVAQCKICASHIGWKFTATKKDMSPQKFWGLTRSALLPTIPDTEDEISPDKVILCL
T1 sequence (Q16531 2-1140 partner limits assumed): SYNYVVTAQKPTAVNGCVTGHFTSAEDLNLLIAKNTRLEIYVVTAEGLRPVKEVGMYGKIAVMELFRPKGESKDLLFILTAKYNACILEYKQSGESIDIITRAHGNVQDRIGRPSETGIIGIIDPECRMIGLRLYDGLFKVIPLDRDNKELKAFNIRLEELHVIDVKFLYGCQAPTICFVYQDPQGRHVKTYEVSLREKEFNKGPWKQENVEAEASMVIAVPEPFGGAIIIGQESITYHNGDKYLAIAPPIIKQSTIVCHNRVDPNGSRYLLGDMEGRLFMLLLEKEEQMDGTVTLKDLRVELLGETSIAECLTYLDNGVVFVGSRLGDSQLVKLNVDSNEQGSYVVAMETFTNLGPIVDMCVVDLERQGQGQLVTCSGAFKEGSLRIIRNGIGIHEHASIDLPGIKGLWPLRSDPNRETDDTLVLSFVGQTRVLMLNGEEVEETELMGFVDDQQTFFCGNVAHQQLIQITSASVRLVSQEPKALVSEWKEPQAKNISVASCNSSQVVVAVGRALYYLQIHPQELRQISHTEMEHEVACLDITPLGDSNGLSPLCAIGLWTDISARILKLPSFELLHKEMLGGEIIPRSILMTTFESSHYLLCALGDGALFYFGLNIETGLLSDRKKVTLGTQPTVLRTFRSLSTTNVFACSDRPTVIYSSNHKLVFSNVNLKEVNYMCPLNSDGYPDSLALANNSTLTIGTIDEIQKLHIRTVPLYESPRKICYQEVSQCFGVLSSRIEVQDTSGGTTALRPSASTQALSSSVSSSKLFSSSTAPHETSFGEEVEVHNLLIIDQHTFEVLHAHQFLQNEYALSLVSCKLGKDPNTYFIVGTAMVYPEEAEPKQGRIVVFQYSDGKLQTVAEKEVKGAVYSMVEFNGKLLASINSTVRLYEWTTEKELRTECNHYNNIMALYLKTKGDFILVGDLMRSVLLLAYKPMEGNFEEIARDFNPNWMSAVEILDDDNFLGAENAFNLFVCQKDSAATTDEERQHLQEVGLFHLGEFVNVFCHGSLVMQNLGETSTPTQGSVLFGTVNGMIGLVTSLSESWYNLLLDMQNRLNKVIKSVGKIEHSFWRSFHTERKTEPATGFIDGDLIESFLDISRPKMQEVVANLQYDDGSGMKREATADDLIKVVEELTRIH
Description: HEK293T cells were cultured in DMEM supplemented with 10% dialyzed fetal bovine serum (FBS) and 2 mM L-Glutamine. SK-N-DZ cells were cultured in DMEM supplemented with 10% dialyzed FBS, 0.1 mM Non-Essential Amino Acids (NEAA) and 2 mM L-Glutamine. H661, MM1s and Kelly cells were cultured in RPMI1640 supplemented with 10% dialyzed FBS. H9 hESC cells were cultured in Essential 8 (Gibco) media on Matrigel-coated nunc tissue culture plates.
(§1) Samples were run on 4-20%, AnyKD or 10% (in-vitro ubiqutination assay) SDS-PAGE Gels (Bio-rad), and transferred to PVDF membranes using the iBlot 2.0 dry blotting system (Thermo Fisher Scientific). Membranes were blocked with LiCor blocking solution (LiCor), and incubated with primary antibodies overnight, followed by three washes in LiCor blocking solution and incubation with secondary antibodies for one hour in the dark. After three final washes, the membranes were imaged on a LiCor fluorescent imaging station (LiCor). When Anti-mouse IgG, HRP Antibody was used, after three washes, the membranes were incubated with Amersham ECL Prime Western Blotting Detection Reagent for 1 minute and subjected to imaging by Amersham Imager 600 (GE).

[2] = test system: IMiD-dependent CRL4^CRBN substrates; assay: TMT quantification mass spectrometry proteomics, IMiD-dependent neo-substrates (hESC, Kelly, SK-N-DZ, MM1s cells); type: cell-based, human; conditions: for substrate specificity: proteins degraded across cell lines: hESC, MM1s, Kelly, SK-N-DZ cells expressing detectable levels of the proteins; for number of substrates identified (rank order): proteomics, treatment with different IMiDs
Description: Since degradation is mediated through CRL4^CRBN, and because CRBN expression levels are high in the central nervous system (CNS), the effects of IMiDs were assessed in two different neuroblastoma cell lines, Kelly and SK-N-DZ cells, as well as the commonly used multiple myeloma cell line, MM1s, as a control.
Proteins were precipitated using methanol/chloroform.

[3] = biological target: T2, mmSALL4 (Mus musculus, UniProt Q8BX22); assay: Western blot of mmSALL4 in mouse embryonic stem cells; type: cell-based; conditions: mESC, increasing concentrations, 24 hours
T2 construct: endogenous in cells; host or cells: TC1 mouse embryonic stem cells
Description: HEK293T cells were cultured in DMEM supplemented with 10% dialyzed fetal bovine serum (FBS) and 2 mM L-Glutamine. SK-N-DZ cells were cultured in DMEM supplemented with 10% dialyzed FBS, 0.1 mM Non-Essential Amino Acids (NEAA) and 2 mM L-Glutamine. H661, MM1s and Kelly cells were cultured in RPMI1640 supplemented with 10% dialyzed FBS. H9 hESC cells were cultured in Essential 8 (Gibco) media on Matrigel-coated nunc tissue culture plates. TC1 mouse embryonic stem cells (mESCs) were adapted to gelatin cultures and fed with KO-DMEM (Gibco) supplemented with 15% stem cell-qualified fetal bovine serum (FBS, Gemini), 2 mM L-glutamine (Gibco), 20 mM HEPES (Gibco), 1 mM sodium pyruvate (Gibco), 0.1 mM of each non-essential amino acids (Gibco), 0.1 mM 2-mercaptoethanol (Sigma), […] mLIF (Gemini).
Cells were treated with compounds as indicated and incubated for 24 hours, or as indicated. Samples were run on 4-20%, AnyKD or 10% (in-vitro ubiqutination assay) SDS-PAGE Gels (Bio-rad), and transferred to PVDF membranes using the iBlot 2.0 dry blotting system (Thermo Fisher Scientific). Membranes were blocked with LiCor blocking solution (LiCor), and incubated with primary antibodies overnight, followed by three washes in LiCor blocking solution and incubation with secondary antibodies for one hour in the dark. […]

[4] = cited from earlier work; for plasma half-life (t1/2) / Cmax: typical dose of 200-400 mg, 25 mg, or 2 mg for thalidomide, lenalidomide, or pomalidomide; for Cmax: read-out: maximum plasma concentration (Cmax)
[5] = biological target: SALL4 ZnF domains and DDB1ΔB-CRBN (Homo sapiens, UniProt Q96SW2+Q9UJQ4); assay: TR-FRET in vitro CRBN binding assay; conditions: SALL4ZnF2; in accordance with cellular potency in degradation of SALL4
Chain of SALL4 ZnF domains and DDB1ΔB-CRBN (Q96SW2 whole entry, stated change not applied, the tested form may be a part): as the sequence (Q96SW2 whole entry) above
Chain of SALL4 ZnF domains and DDB1ΔB-CRBN (Q9UJQ4 402-436, stated change not applied): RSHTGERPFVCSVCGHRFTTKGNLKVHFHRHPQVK
Description: Before TR-FRET measurements were conducted, the reactions were incubated for 15 minutes at RT. […] The TR-FRET signal of each data point was extracted by calculating the 520/490 nm ratios.

[6] = test system: Flag-hsSALL4; assay: Western blot of transiently transfected Flag-hsSALL4 (WT or mutant) in Kelly cells; type: cell-based, human; conditions: 24 hours
Description: as §1, with “Cells were treated with compounds as indicated and incubated for 24 hours, or as indicated. Samples” for “Samples”
(§2) hsCRBN, hsSALL4, mmSALL4 and drSALL4 were PCR amplified and cloned into a pNTM-Flag based vector. Mutagenesis was performed using the Q5 site-directed mutagenesis kit (NEB, USA) with primers designed using the BaseChanger web server (http://nebasechanger.neb.com/).
For transient transfection, 0.2 million cells were seeded per well in a 12 well plate on day one. On day two, cells were transfected with 200-300 ng of plasmid (pNTM-Flag containing gene of interest) using 2 μL of lipofectamine 2000 transfection reagent (Invitrogen). On day three, desired concentration of IMiD was added to each well and cells were harvested after 24 hours for western blot analysis using the protocol described above.

[7] = biological target: Flag-mmSALL4 (UniProt Q8BX22+Q96SW2); assay: Western blot of transiently transfected Flag-mmSALL4 in Kelly cells; type: cell-based, mouse; conditions: Y415F, P418S, I419V, L430F, Q435H
Chain of Flag-mmSALL4 (Q8BX22 whole entry): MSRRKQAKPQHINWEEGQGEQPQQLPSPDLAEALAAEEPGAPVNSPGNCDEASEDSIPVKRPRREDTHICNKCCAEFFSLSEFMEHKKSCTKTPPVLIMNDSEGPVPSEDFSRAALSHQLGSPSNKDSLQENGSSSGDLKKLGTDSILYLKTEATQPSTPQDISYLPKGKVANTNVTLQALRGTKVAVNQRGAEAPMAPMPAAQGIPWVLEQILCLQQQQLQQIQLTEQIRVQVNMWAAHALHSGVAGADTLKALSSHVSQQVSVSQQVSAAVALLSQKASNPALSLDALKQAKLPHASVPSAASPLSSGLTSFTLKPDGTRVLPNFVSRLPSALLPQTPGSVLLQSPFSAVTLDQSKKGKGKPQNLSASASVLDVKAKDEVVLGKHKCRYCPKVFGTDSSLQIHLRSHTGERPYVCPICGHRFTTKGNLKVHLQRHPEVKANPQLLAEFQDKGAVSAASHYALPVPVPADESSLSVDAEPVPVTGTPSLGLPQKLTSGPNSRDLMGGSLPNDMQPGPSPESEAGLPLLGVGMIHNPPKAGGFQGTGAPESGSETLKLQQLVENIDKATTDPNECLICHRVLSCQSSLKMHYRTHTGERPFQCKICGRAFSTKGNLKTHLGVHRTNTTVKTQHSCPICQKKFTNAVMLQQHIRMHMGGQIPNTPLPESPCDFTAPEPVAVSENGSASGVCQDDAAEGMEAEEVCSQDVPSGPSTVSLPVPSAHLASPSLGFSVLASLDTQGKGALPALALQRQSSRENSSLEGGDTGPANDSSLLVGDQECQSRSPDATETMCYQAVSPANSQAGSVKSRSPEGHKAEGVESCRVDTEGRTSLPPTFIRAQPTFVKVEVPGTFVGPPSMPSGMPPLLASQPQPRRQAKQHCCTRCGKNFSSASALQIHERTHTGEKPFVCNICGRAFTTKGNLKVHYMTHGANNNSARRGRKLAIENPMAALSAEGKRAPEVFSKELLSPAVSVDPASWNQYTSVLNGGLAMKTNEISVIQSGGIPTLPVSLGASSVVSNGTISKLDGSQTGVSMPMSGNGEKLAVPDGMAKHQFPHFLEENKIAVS
Chain of Flag-mmSALL4 (Q96SW2 whole entry): as the sequence (Q96SW2 whole entry) above
Chain of Flag-mmSALL4 (Q16531 2-1140 partner limits assumed): as the sequence (Q16531 2-1140 partner limits assumed) above
Description: as §1, with “Cells were treated with compounds as indicated and incubated for 24 hours, or as indicated. Samples” for “Samples”
as §2
For transient transfection, 0.2 million cells were seeded per well in a 12 well plate on day one. On day two, cells were transfected with 200-300 ng of plasmid (pNTM-Flag containing gene of interest) using 2 μL of lipofectamine 2000 transfection reagent (Invitrogen). […]

[8] = test system: SALL4 mRNA; assay: Quantitative RT-PCR of total SALL4 mRNA in H9 hES cells; type: cell-based, human; conditions: 10 μM thalidomide, 24 hours, normalized to GAPDH
Description: RNA was isolated using the RNeasy Plus mini kit (Qiagen) and cDNA created by reverse transcription using ProtoScript II reverse transcriptase (NEB) following the manufacturer's instructions. The following primer sets from IDT were used with SYBR Green Master Mix (Applied Biosystems) to probe both GAPDH and total SALL4 levels:
Analysis was performed on a CFX Connect Real-Time PCR System (Bio-Rad) in a white 96-well PCR plate. Relative expression levels were calculated using the […] method.

[9] = Kelly, SK-N-DZ, HEK293T and H661 cells, increasing concentrations

effect of co-treatment on IMiD-induced SALL4 degradation ([1]; Kelly): abrogated
Compound: NS(=O)(=O)OC[C@@H]1C[C@@H](n2ccc3c(N[C@H]4CCc5ccccc54)ncnc32)C[C@@H]1O [MLN4924]
effect of co-treatment on IMiD-induced degradation of targets (rescue proteomics) ([2]; SK-N-DZ cells, 1 μM pomalidomide + 5 μM MLN4924, 5 hours): fully abrogated IMiD-induced degradation of targets

SALL4 degradation at plasma-relevant concentration ([1]; 10 μM): effective degradation of SALL4
SALL4 degradation in CRBN−/− cells ([1]; increasing concentrations): no degradation of SALL4 was observed
SALL4 protein levels by western blot [1, 9]: dose-dependent decrease
degradation of mmSALL4 with humanized ZnF2 domain [7]: degradation was induced
degradation of mmSALL4 [3]: does not promote degradation of mmSALL4
rank order in binding observed with ZnF2 [5]: Pom >Thal>>Len
Compound: O=C1CCC(N2C(=O)c3ccccc3C2=O)C(=O)N1 (stereo not shown) [thalidomide, 2-(2,6-dioxopiperidin-3-yl)-1H-isoindole-1,3(2H)-dione]
SALL4 protein levels by western blot ([1]; H9 hESC, increasing doses): dose dependent decrease in protein levels
degradation of wild type Flag-hsSALL4 [6]: readily degraded
degradation of Flag-SALL4 with G416A or G416N mutations in ZnF2 ([6]; thalidomide): rendered SALL4 stable
degradation of Flag-SALL4 with G600A or G600N mutations in ZnF4 ([6]; thalidomide): readily degraded
substrate specificity: proteins degraded across cell lines [2]: robust degradation of the zinc finger transcription factors ZNF692, SALL4, and the ubiquitin ligase RNF166
number of substrates identified (rank order) [2]: Thal <Len<<Pom
SALL4 mRNA level [8]: does not reduce the level of SALL4 mRNA, but rather upregulates SALL4 mRNA
SALL4 mRNA level ([8]; listed as Thalidomide): did not influence the expression of SALL4 mRNA
plasma concentration in humans ([4]; human, in vivo): ≤ 10 µM
plasma half-life (t1/2) [4]: 6 to 8 h
Cmax [4]: 5 to 10 µM

effect of co-treatment on IMiD-induced SALL4 degradation ([1]; Kelly): abrogated
Compound: CC(C)C[C@H](NC(=O)[C@H](Cc1ccccc1)NC(=O)c1cnccn1)B(O)O [bortezomib]

effect of co-treatment on IMiD-induced SALL4 degradation ([1]; Kelly): abrogated
Compound: NS(=O)(=O)OC[C@H]1C[C@@H](Nc2ccnc3cc(-c4cccc(SC(F)(F)F)c4)nn23)[C@H](O)[C@@H]1O [MLN7243]

Second part, the compound before the results:

Compound: Nc1cccc2c1C(=O)N(C1CCC(=O)NC1=O)C2=O (stereo not shown) [pomalidomide]
SALL4 degradation in CRBN−/− cells ([1]; increasing concentrations): no degradation of SALL4 was observed
SALL4 protein levels by western blot ([1]; H9 hESC, increasing doses): dose dependent decrease in protein levels
earliest time of SALL4 degradation post-treatment ([1]; Kelly cells, 1 or 5 μM pomalidomide): 4 h
SALL4 protein levels by western blot [1, 9]: dose-dependent decrease
further proteins degraded in proteomics ([2]; H9 hESC, 5 hours, 5 μM lenalidomide, 1 μM pomalidomide): degradation of additional targets including the previously characterized zinc finger protein ZFP91 (An et al., 2017), and the largely uncharacterized proteins ZBTB39, FAM83F, WIZ, RAB28, and DTWD1
substrate specificity: proteins degraded across cell lines [2]: robust degradation of ZBTB39, ZFP91, DTWD1, and ZNF653
number of substrates identified (rank order) [2]: Thal <Len<<Pom
degradation of mmSALL4 [3]: does not promote degradation of mmSALL4
plasma half-life (t1/2) [4]: ~9 h
Cmax [4]: 0.05 µM
rank order in binding observed with ZnF2 [5]: Pom >Thal>>Len

Compound: Nc1cccc2c1CN(C1CCC(=O)NC1=O)C2=O (stereo not shown) [lenalidomide]
plasma half-life (t1/2) [4]: ~3 h

Compound: O=C1CC[C@H](N2Cc3c(OCc4ccc(CN5CCOCC5)cc4)cccc3C2=O)C(=O)N1 [CC-220]
degradation of ZnF targets including SALL4 (proteomics) ([2]; SK-N-DZ cells, 0.1 μM CC-220, 1 μM dBET57, 5 hours (FIG. 6C)): effective inducers of ZnF targets including SALL4 degradation
